# Data published in patent publication US20230134843A1, “TREATMENT OF STEM CELL DEFICIENCY” (OSPEDALE SAN RAFFAELE S.R.L., priority 2020, published 2023).
# Entries after “also recorded” stand apart in the source; their conditions may differ.
# Biological target: T1, NK1R (Mus musculus, UniProt P30548)
# T1 construct: NK1R is expressed by both corneal epithelial and stem cell-like cells; from tissue; host or cells: cornea / ocular surface of live C57BL6/N mice (topical dosing in vivo)
# Assay: Corneal opacity grading score, stem cell deficiency model (Example 2)
# Assay type: in vivo, mice
# Text: Eight-week-old male mice C57BL6/N (Charles River, Calco, Italy) (WT mice, n=18) and Tac1-deficient B6.Cg-Tac1tm1Bbm/J (Jackson Laboratories, Bar Harbor, Me., USA) (TAC1-KO mice, n=18) were used in all experiments. TAC1-KO mice are homozygous null for the Tac1 gene. […] The corneal thickness and transparency as well as the corneal nerve length are similar to C57BL/6 mice [Barbariga M, Rabiolo A, Fonteyne P, Bignami F, Rama P, Ferrari G. The effect of aging on nerve morphology and substance P expression in mouse and human corneas. Investig Ophthalmol Vis Sci 2018; 59:5329-35. https://doi.org/10.1167/iovs.18-24707.]. […]
# Every day after disepithelization, in vivo corneal photographs were taken using a digital camera (EOS 30D; Canon, Tokyo, Japan) attached to a slit-lamp microscope (Photoslitmap 40 SL-P; Zeiss, Oberkochen, Germany) to assess corneal condition. Corneal opacity was evaluated using a grading score (from 0-4; 0=completely clear, 4=completely opaque) previously described [Yoeruek E, Deuter C, Gieselmann S, Saygili O, Spitzer M S, Tatar O, et al. Long-term visual acuity and its predictors after cataract surgery in patients with uveitis. […] The percentage of green fluorescent area on the total corneal area was evaluated by analyzing images by Image J software (National Institutes of Health, Bethesda, Md., USA).
# T1 sequence (P30548 whole entry): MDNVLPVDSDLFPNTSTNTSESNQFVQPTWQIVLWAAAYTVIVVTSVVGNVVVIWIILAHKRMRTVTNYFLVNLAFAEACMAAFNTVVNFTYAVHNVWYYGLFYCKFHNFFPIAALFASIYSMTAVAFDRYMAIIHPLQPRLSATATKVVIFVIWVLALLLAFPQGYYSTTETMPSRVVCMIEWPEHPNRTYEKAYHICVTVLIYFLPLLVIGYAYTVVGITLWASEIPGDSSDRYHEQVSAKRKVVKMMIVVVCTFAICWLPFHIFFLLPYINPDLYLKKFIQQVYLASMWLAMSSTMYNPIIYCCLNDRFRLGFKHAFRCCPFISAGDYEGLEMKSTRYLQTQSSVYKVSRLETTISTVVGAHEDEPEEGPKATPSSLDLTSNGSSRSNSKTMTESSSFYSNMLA
smiles,measurement,setting,value
"C[C@@H](O[C@H]1OCCN(Cc2nc(=O)n(P(=O)(O)O)[nH]2)[C@H]1c1ccc(F)cc1)c1cc(C(F)(F)F)cc(C(F)(F)F)c1 [Fosaprepitant, [3-{[(2R,3S)-2-[(1R)-1-[3,5-bis(trifluoromethyl)phenyl]ethoxy]-3-(4-fluorophenyl)morpholin-4-yl]methyl}-5-oxo-2H-1,2,4-triazol-1-yl]phosphonic acid]",corneal opacity compared to WT,Fosaprepitant 0.1 mg/mL (FOSA 0.1) topically 4 times/day for 16 days,did not show any improvement; also recorded: no improvement
same,corneal transparency compared to WT,"Fosaprepitant 1 mg/mL (FOSA 1) topically 4 times/day for 16 days, p<0.05",significant improvement; also recorded: better corneal transparency
